Test results: patent publication US20230390276A1, “TREATMENT OF AUTOIMMUNE DISEASES WITH A DIHYDROOROTATE HEHYDROGENASE (DHODH) INHIBITOR” (Aslan Pharmaceuticals Pte. Ltd., priority 2020, published 2023)

Experiments:
EAE Lewis rat model [1] = test: Histology of the CNS in EAE rats; assay type: in vivo, Male Lewis rats; details: highest doses tested; compared to vehicle-treated animals
Method: At the end of the experiment, animals were killed by exsanguination and necropsies were performed in a blind manner. The spinal cords (CNS; spinal cord, medulla oblonga, cerebellum) of EAE animals were obtained, fixed in 4% formalin in PBS, and embedded in paraffin. Six μm-thickness sections were prepared and then stained with hematoxylin and eosin. The histological score was evaluated as follows: • 0: no lesions; • 1: solitary lesions with cell infiltrates of low cellular density in the entire section; • 2: a few lesions with moderate cell infiltration in each of a few fields; • 3: many lesions in almost all fields with massive cell infiltration and accompanying edema (Kataoka, 2005).

DSS induced IBD model = test: Dextran sulfate sodium (DSS) induced inflammatory bowel disease (IBD) mouse model; assay type: in vivo, Male C57BL/6 mice
Method: Male C57BL/6 mice aged 6-7 weeks were procured from Shanghai Lingchang Bio Tech Co. Ltd, China. Animals were randomized into groups based on the body weight: • Group 01: Purified water, ad libitum, Day 1-8; Vehicle, 5 mL/kg, P0, QD, Day 0-9, n=6 • Group 02: 3% DSS in water, ad libitum, Day 1-8; Vehicle, 5 mL/kg, P0, QD, Day 0-9, n=8 • Group 03: 3% DSS in water, ad libitum, Day 1-8; positive control V, 20 mg/kg, P0, QD, Day 0-9, n=8 • Group 04: 3% DSS in water, ad libitum, Day 1-8; ASLAN003, low dose, P0, QD, Day 0-9, n=8a • Group 05: 3% DSS in water, ad libitum, Day 1-8; ASLAN003, high dose, P0, QD, Day 0-9, n=8 • Abbreviations: QD=Once daily; PO=Oral gavage. • Study duration: 3 weeks of acclimation phase, and 10 days of treatment phase starting from Day 0 (Day 0-10). • Colitis model induction: To induce acute experimental colitis, mice in Groups 02-05 were provided ad libitum access to 3% DSS in purified water for 7 days (Day 1-7), followed by purified water for 2 days (Day 9-10). The drinking water containing DSS was changed once in two days. Mice in Group 01 was kept on purified water as a control, during Day 1-7. • In-life parameters measured: • Water and food consumption was monitored once daily during Day 0-10. • Body weight was measured once daily during Day 0-10, with twice daily clinical monitoring. • Stool observation as conducted once daily during Day 0-10. A disease activity index (DAI) was determined to quantify induction of colitis. • Intestinal permeability was assessed on Days 0 and 9. • Faeces was collected for lipocalin-2 detection on Days 0, 4, 8 and 10. • Study Termination: The mice were sacrificed on Day 10, and the following was performed on the sacrificed animals: • The entire colon (from caecum to anus) was collected and its length from ileocecal valve to anus was measured. • One photo of the entire colon for each mouse was taken. • The colon was opened along the mesenteric border, rinsed with saline, blotted dry and its weight was measured. • The colon was processed as ‘spiral Swiss Rolls’, fixed in 10% neutral-buffered formalin for 24-48 hours, and embedded in paraffin (one block per mouse) for hematoxylin-eosin (H&E) staining and histopathological evaluation. • The spleen was dissected, its tissue weight measured and recorded, and then discarded.

EAE Lewis rat model [2] = test: EAE Lewis rat model, clinical score AUC (Example 2); assay type: in vivo, Male Lewis rats
Method: For the induction of EAE, guinea pig myelin basic protein (MBP) (Sigma, M2295) suspended in 0.9% saline solution at a concentration of 2 mg/ml was used. The solution was emulsified with an equal volume of Freund's complete adjuvant (Sigma, F5881) containing 4 mg/ml of heat-inactivated Mycobacterium tuberculosis H37Ra (Difeo Laboratories, Ref. 231141). Male Lewis rats were immunized with 0.1 ml of emulsion by subcutaneous injection into the right and left hind footpads with the emulsion containing MBP at 100 μg/rat.
Individual animals were examined daily for clinical signs of neurological deficits scored on a 0 to 5 scale, as follows:
Clinical signs of the disease were observed on day 8-9 after induction.
As disease progressed, animals with a score of 4 were sacrificed if disability indicated little chance of recovery, in accordance with animal welfare standards. Mortality due to sacrifice or spontaneous EAE-related death was recorded as a 5 on the given day. This death score continued to be included in the clinical assessment, but no body weight measurements could be carried forward.
LAS 186323 (ASLAN003), positive control T and positive control F were freshly prepared every day and suspended in 0.5% Methylcellulose and 0.1% Tween 80 in water, at the specified doses and administered by oral gavage in a volume of 10 ml/kg.
Evaluation of disability was performed on a daily basis and a clinical score given to each animal, as described. The area under the curve (AUC) of the clinical score was generated for each animal from the data recorded along the experiment. The percentage of inhibition of the AUC was calculated for every animal versus the mean of the AUC of the vehicle group. The mean percentage of inhibition per treatment and dose was calculated.

[3] = tested on: rheumatoid arthritis (RA) Adjuvant-Induced Arthritis (AIA) model; test: Adjuvant-induced arthritis (AIA) model, paw inflammation AUC; assay type: in vivo, Male Wistar rats; details: for % Inhibition of the AUC (mean ± SEM): vs mean of vehicle
[4] = tested on: multiple sclerosis experimental autoimmune encephalomyelitis (EAE) model; test: EAE model of multiple sclerosis, clinical score (Example 1); assay type: in vivo; details: oral 1, 3, 10 or 15 mg/kg per day from Day 8 after disease induction
Description: Experimental autoimmune encephalomyelitis (EAE) is a well-studied animal model of demyelinating diseases, such as human multiple sclerosis (MS). EAE is induced by injecting susceptible animals with purified myelin components, central nervous system (CNS) extract, or synthesized specific peptides emulsified in an adjuvant. The peptides are for example derived from myelin basic protein (MBP), myelin oligodendrocyte glycoprotein (MOG) or proteolipid protein (PLP). To investigate the effect of ASLAN003 on multiple sclerosis, ASLAN003 was administered orally to the EAE model at doses of 1 mg/kg, 3 mg/kg, 10 mg/kg or 15 mg/kg per day, starting from Day 8 after disease induction. A vehicle control was included.

[5] = Haematological cell count in EAE rats; assay type: in vivo, Male Lewis rats; details: for number of neutrophils: 24 hours after last administration, no statistically significant difference versus vehicle
Method: At the end of the assay, 24 h after last administration, blood samples from the retro-orbital plexus were obtained from all animals under light anaesthesia. Samples were used to determine complete blood cell count (XT-2000i/XT-1800i, Sysmex Corporation). Absolute values were reported for all cell types.

[6] = tested on: rheumatoid arthritis (RA) Adjuvant-Induced Arthritis (AIA) model; test: X-ray (radiological) score of paws in AIA model; assay type: in vivo, Male Wistar rats; details: 3 mg/kg; 2 to 3 independent experiments
Method: Rats were administered the CFA suspension every day in the morning for 10 consecutive days. Body weight was measured every day and paw volumes every other day. On day 11 post-treatment (24 hrs after last administration), the rats were anesthetised, blood samples were collected from their retroorbital plexus to determine cell counts, and then sacrificed. Hind paws were excised to perform X-ray analysis and a score of radiological damage was performed by a scientist unaware in a blind manner. The radiological score is a composite of 5 different parameters evaluated from the X-ray images of every individual paw. The 5 parameters are: bone demineralisation, periostitis, narrowing of the joint space, cystic degeneration, and inflammation of the soft tissues. For each parameter, a value of 0-4 was assigned, which is proportional to the severity observed. The sum of the scores of the 5 parameters provides the radiological score for each animal. The effect of a treatment on the inhibition of the radiological score was measured by calculating the % inhibition of the radiological score of every animal belonging to a treatment group vs the mean of the vehicle treated group. In the case where several experiments were conducted, the values provided are the mean of the individual experiments and the SEM.

[7] = WBC and platelet counts in AIA model; assay type: in vivo, Male Wistar rats; details: arthritic rats, 24 hrs after last administration
Method: Rats were administered the CFA suspension every day in the morning for 10 consecutive days. Body weight was measured every day and paw volumes every other day. On day 11 post-treatment (24 hrs after last administration), the rats were anesthetised, blood samples were collected from their retroorbital plexus to determine cell counts, and then sacrificed. Hind paws were excised to perform X-ray analysis and a score of radiological damage was performed by a scientist unaware in a blind manner.

## COc1cccc(-c2cc(F)c(Nc3ncccc3C(=O)O)c(F)c2)c1 [ASLAN003, 2-(3,5-difluoro-3′-methoxybiphenyl-4-ylamino) nicotinic acid]
EAE Lewis rat model [1]
  CNS histological score (microscopic CNS lesions): profound improvement in the microscopic CNS lesions
DSS induced IBD model; 75 mg/kg PO QD (group 5), Days 2 to 9
  stool consistency: best overall stool consistency
DSS induced IBD model; 75 mg/kg PO QD (group 5), end of study
  spleen weight: most similar to the control group 1
DSS induced IBD model; 75 mg/kg PO QD (group 5), over the 10 days
  Disease Activity Index (DAI): lower overall increase in DAI
DSS induced IBD model; 75 mg/kg PO QD (group 5), over the course of the study
  bloody stools: lowest incidence of bloody stools
DSS induced IBD model; 25 and 75 mg/kg PO QD (groups 4 and 5), end of study, vs Vehicle group 2
  colon weight/length: fairly similar
DSS induced IBD model; 25 and 75 mg/kg PO QD (groups 4 and 5), vs vehicle treated group 2
  lipocalin in faeces (intestinal inflammation): less intestinal inflammation
DSS induced IBD model; 25 and 75 mg/kg PO QD Day 0-9 (groups 4 and 5), vs DSS induced vehicle group 2
  loss in body weight: similar
EAE Lewis rat model [2]; 1 mg/kg oral daily
  % AUC inhibition Mean (SEM) of clinical score: 41.1 (13.34) %
EAE Lewis rat model [2]; 3 mg/kg oral daily
  % AUC inhibition Mean (SEM) of clinical score: 44.4 (10.79) %
EAE Lewis rat model [2]; 10 mg/kg oral daily
  % AUC inhibition Mean (SEM) of clinical score: 65.1 (9.02) %
EAE Lewis rat model [2]; 15 mg/kg oral daily
  % AUC inhibition Mean (SEM) of clinical score: 84.4 (4.94) %
EAE Lewis rat model [2]; calculated by linear regression
  ED50 (clinical score AUC inhibition): 2.7 mg/kg/day
[3]; 1 mg/kg oral daily, 2 to 5 independent experiments
  AUC of right paw inflammation (mean ± SEM): 9.11 ± 3.14
[3]; 1 mg/kg oral daily
  % Inhibition of the AUC (mean ± SEM): 32.76 ± 22.8%
[3]; 3 mg/kg oral daily
  % Inhibition of the AUC (mean ± SEM): 53.09 ± 2.4%
[3]; 10 mg/kg oral daily
  % Inhibition of the AUC (mean ± SEM): 64.49 ± 4.6%
[3]; Rattus norvegicus, from 2 to 5 independent experiments, read-out: ED50 (mean % reduction in paw volume)
  ED50: 4.6 mg/kg
[4]
  clinical score compared to the vehicle control: significantly reduced clinical score
[5]; 10 mg/kg
  number of neutrophils: not at 10 mg/kg
[5]; 3 and 15 mg/kg
  number of neutrophils: reduction in the number of neutrophils
[5]; once a day oral, 1-15 mg/kg
  blood cell count: did not have a significant effect
[6]
  X-ray score (mean ± SEM): 2.16 ± 0.25
[7]; 1 mg/kg
  Platelets: 1418 ± 180 ×10^3/μl
  White blood cells: 20.6 ± 0 ×10^3/μl
[7]; 3 mg/kg
  Platelets: 1180 ± 45.9 ×10^3/μl
  White blood cells: 16.2 ± 0.86 ×10^3/μl
